Where two headings read alike, the source gives them in different places.
Legend:
Format in all cases: cell-based, hepatitis C virus
[1] = tested on: genotype 1a NS3/4a protease inhibitor resistant variant R155K transient HCV replicon in Huh-7-derived cells; test: Transient-transfected HCV replicon EC50, genotype 1a R155K; conditions: Hepatitis C virus, 72 h, read-out: EC50 1A R155K, transient-transfected replicon genotype 1a R155K resistant variant, 72 h
[2] = tested on: genotype 2a (JFH-1) stable HCV replicon in Huh-7-derived cells; test: Stable subgenomic HCV replicon EC50, genotype 2a (Renilla luciferase); conditions: Hepatitis C virus, stable replicon genotype 2a, 72 h, read-out: EC50 2A RLUC
Method: (§1) Antiviral potency (EC50) was determined in both stable subgenomic HCV replicon cell lines and transient-transfected HCV replicon cells. The term half maximal effective concentration (EC50) refers to the concentration of a drug which induces a response halfway between the baseline and maximum after the exposure time specified below.
(§2) Stable subgenomic HCV replicons for genotype 1a, 1b, 2a, 3a, and 4a were established in Huh-7-derived cells as described by Lohmann et al (Lohmann V, Korner F, Koch J, et al Replication of subgenomic hepatitis C virus RNAs in a hepatoma cell line. Science 1999; 285:119-3) Each stable cell line contains a bicistronic HCV replicon that encodes a humanized Renilla luciferase (hRLuc) reporter gene fused to a selectable neomycin-resistance gene, followed by an EMCV IRES and the NS3-NS5B coding region of HCV. […] Luciferase activity was measured as a marker for intracellular HCV replication levels.
(§3) The genotype 1a stable replicon was derived from the H77 HCV strain and contained adaptive mutations P1496L and S2204I. The genotype 1b stable replicon was derived from the Con1 HCV strain and contained adaptive mutations E1202G, T1280I and K1846T. […] The genotype 3a stable replicon was derived from the S52 HCV strain and contained adaptive mutations P1121L, A1198T and S2210I (equivalent to S2204I in genotype 1). The genotype 4a stable replicon was derived from the ED43 HCV strain and contained adaptive mutations Q1691R and S2204I. All replicon cell lines were propagated in Huh-7-derived cells and maintained in Dulbecco's modified Eagle's Medium (DMEM) supplemented with 10% fetal bovine serum (FBS) and 0.5 mg/mL G418.
(§4) To perform EC50 assays, cells from each HCV replicon were dispensed into 384-well plates. Compounds were dissolved in DMSO at a concentration of 10 mM and diluted in DMSO using an automated pipetting instrument. Three-fold serially diluted compounds were directly added to the cells using an automated instrument. […] Seventy-two hours later, cells were lysed and Renilla luciferase activity were quantified as recommended by the manufacturer (Promega-Madison, Wis.). Non-linear regression was performed to calculate EC50 values.

[3] = tested on: genotype 3a (S52) stable HCV replicon in Huh-7-derived cells; test: Stable subgenomic HCV replicon EC50, genotype 3a (Renilla luciferase); conditions: Hepatitis C virus, 72 h, read-out: EC50 3A RLUC
Method: as §1, §2, §3, §4

[4] = tested on: genotype 4a (ED43) stable HCV replicon in Huh-7-derived cells; test: Stable subgenomic HCV replicon EC50, genotype 4a (Renilla luciferase); conditions: Hepatitis C virus, 72 h, read-out: EC50 4A RLUC
Method: as §1, §2, §3, §4

[5] = tested on: genotype 1b NS3/4a protease inhibitor resistant variant D168A transient HCV replicon in Huh-7-derived cells; test: Transient-transfected HCV replicon EC50, genotype 1b D168A; conditions: Hepatitis C virus, 72 h, read-out: EC50 1B D168A, transient-transfected replicon genotype 1b D168A resistant variant, 72 h
[6] = tested on: genotype 1a (H77) wild type transient HCV replicon in Huh-7-derived cells; test: Transient-transfected HCV replicon EC50, genotype 1a wild type; conditions: Hepatitis C virus, 72 h, read-out: EC50 1A WT
[7] = tested on: genotype 1a (H77) stable HCV replicon in Huh-7-derived cells; test: Stable subgenomic HCV replicon EC50, genotype 1a (Renilla luciferase); conditions: Hepatitis C virus, stable replicon genotype 1a, 72 h, read-out: EC50 1A RLUC
Method: as §1, §2, §3, §4

[8] = tested on: genotype 1b (Con1) stable HCV replicon in Huh-7-derived cells; test: Stable subgenomic HCV replicon EC50, genotype 1b (Renilla luciferase); conditions: Hepatitis C virus, stable replicon genotype 1b, 72 h, read-out: EC50 1B RLUC
Method: as §1, §2, §3, §4

[9] = tested on: genotype 1b (Con1) wild type transient HCV replicon in Huh-7-derived cells; test: Transient-transfected HCV replicon EC50, genotype 1b wild type; conditions: Hepatitis C virus, 72 h, read-out: EC50 1B WT
[10] = transient-transfected replicon genotype 1a wild type
[11] = transient-transfected replicon genotype 1b wild type

CC[C@@H]1[C@@H]2CN(C(=O)[C@H](C(C)(C)C)NC(=O)O[C@@H]3C[C@H]3CCCCCc3nc4ccc(OC)cc4nc3O2)[C@@H]1C(=O)N[C@]1(C(=O)NS(=O)(=O)C2CC2)C[C@H]1C(F)F [Example 2, (1aR,5S,8S,9S,10R,22aR)-5-tert-butyl-N-[(1R,2R)-1-[(cyclopropylsulfonyl)carbamoyl]-2-(difluoromethyl)cyclopropyl]-9-ethyl-14-methoxy-3,6-dioxo-1,1a,3,4,5,6,9,10,18,19,20,21,22,22a-tetradecahydro-8H-7,10-methanocyclopropa[18,19][1,10,3,6]dioxadiazacyclononadecino[11,12-b]quinoxaline-8-carboxamide] showed an EC50 [1] of 7 nM, an EC50 [2] of 3.9 nM and an EC50 [3] of 77 nM. For the same compound, the EC50 [4] was 2.7 nM, the EC50 [5] was 33 nM and the EC50 [6, 10] was 2.4 nM. The EC50 [7] was 4 nM, the EC50 [8] was 3.1 nM and the EC50 [9, 11] was 1 nM.
CC[C@@H]1[C@@H]2CN(C(=O)[C@H](C(C)(C)C)NC(=O)O[C@@H]3C[C@H]3CCCCCc3nc4ccc(OC)cc4nc3O2)[C@@H]1C(=O)N[C@]1(C(=O)NS(=O)(=O)C2CC2)C[C@H]1CC [Example 3, (1aR,5S,8S,9S,10R,22aR)-5-tert-butyl-N-{(1R,2R)-1-[(cyclopropylsulfonyl)carbamoyl]-2-ethylcyclopropyl}-9-ethyl-14-methoxy-3,6-dioxo-1,1a,3,4,5,6,9,10,18,19,20,21,22,22a-tetradecahydro-8H-7,10-methanocyclopropa[18,19][1,10,3,6]dioxadiazacyclononadecino[11,12-b]quinoxaline-8-carboxamide] gave an EC50 [1] of 32 nM, an EC50 [2] of 28 nM and an EC50 [3] of 546 nM. For the same compound, the EC50 [4] was 10 nM, the EC50 [5] was 128 nM and the EC50 [6, 10] was 6.6 nM. For the same compound, the EC50 [7] was 11.7 nM, the EC50 [8] was 9.8 nM and the EC50 [9, 11] was 3.5 nM.
Compound CC[C@@H]1[C@@H]2CN(C(=O)[C@H](C(C)(C)C)NC(=O)O[C@@H]3CCC[C@H]3CCCCCc3nc4ccc(OC)cc4nc3O2)[C@@H]1C(=O)N[C@]1(C(=O)NS(=O)(=O)C2(C)CC2)C[C@H]1C(F)F [Example 6, (3aR,7S,10S,11S,12R,24aR)-7-tert-butyl-N-[(1R,2R)-2-(difluoromethyl)-1-{[(1-methylcyclopropyl)sulfonyl]carbamoyl}cyclopropyl]-11-ethyl-16-methoxy-5,8-dioxo-1,2,3,3a,5,6,7,8,11,12,20,21,22,23,24,24a-hexadecahydro-10H-9,12-methanocyclopenta[18,19][1,10,3,6] dioxadiazacyclononadecino[11,12-b]quinoxaline-10-carboxamide] has an EC50 [1] of 58 nM, an EC50 [2] of 34 nM and an EC50 [3] of 1360 nM. It also gave an EC50 [4] of 34 nM, an EC50 [5] of 216 nM and an EC50 [6, 10] of 26 nM. The EC50 [7] was 35 nM, the EC50 [8] was 36 nM and the EC50 [9, 11] was 11 nM.
With CC[C@@H]1[C@@H]2CN(C(=O)[C@H](C(C)(C)C)NC(=O)O[C@@]3(C)C[C@@H]3CCCCCc3nc4ccc(OC)cc4nc3O2)[C@@H]1C(=O)N[C@]1(C(=O)NS(=O)(=O)C2(C)CC2)C[C@H]1C(F)F [Example 8, (1aS,5S,8S,9S,10R,22aS)-5-tert-butyl-N-[(1R,2R)-2-(difluoromethyl)-1-{[(1-methylcyclopropyl)sulfonyl]carbamoyl}cyclopropyl]-9-ethyl-14-methoxy-1a-methyl-3,6-dioxo-1,1a,3,4,5,6,9,10,18,19,20,21,22,22a-tetradecahydro-8H-7,10-methanocyclopropa[18,19][1,10,3,6] dioxadiazacyclononadecino[11,12-b]quinoxaline-8-carboxamide] the EC50 [1] was 28 nM, the EC50 [2] was 20 nM and the EC50 [3] was 465 nM. The EC50 [4] was 13 nM, the EC50 [5] was 89 nM and the EC50 [6, 10] was 8.8 nM. It also gave an EC50 [7] of 16 nM, an EC50 [8] of 8.6 nM and an EC50 [9, 11] of 4.8 nM.
With CC[C@@H]1[C@@H]2CN(C(=O)[C@H](C3CCCC3)NC(=O)O[C@@H]3C[C@H]3CCCCCc3nc4ccc(OC)cc4nc3O2)[C@@H]1C(=O)N[C@]1(C(=O)NS(=O)(=O)C2CC2)C[C@H]1C(F)F [Example 15, (1aR,5S,8S,9S,10R,22aR)-5-cyclopentyl-N-[(1R,2R)-1-[(cyclopropylsulfonyl)carbamoyl]-2-(difluoromethyl)cyclopropyl]-9-ethyl-14-methoxy-3,6-dioxo-1,1a,3,4,5,6,9,10,18,19,20,21,22,22a-tetradecahydro-8H-7,10-methanocyclopropa[18,19][1,10,3,6]dioxadiazacyclononadecino[11,12-b]quinoxaline-8-carboxamide] the EC50 [1] was 20 nM, the EC50 [2] was 9.8 nM and the EC50 [3] was 550 nM. It also gave an EC50 [4] of 7.8 nM, an EC50 [5] of 182 nM and an EC50 [6] of 6.5 nM. The EC50 [7] was 11 nM, the EC50 [8] was 6.8 nM and the EC50 [9] was 3 nM.
COc1ccc2nc3c(nc2c1)O[C@H]1CN(C(=O)[C@H](C(C)(C)C)NC(=O)O[C@@H]2C[C@H]2CCCCC3)[C@H](C(=O)N[C@]2(C(=O)NS(=O)(=O)C3CC3)C[C@H]2C(F)F)[C@@H]1C [Example 19, (1aR,5S,8S,9S,10R,22aR)-5-tert-butyl-N-[(1R,2R)-1-[(cyclopropylsulfonyl)carbamoyl]-2-(difluoromethyl)cyclopropyl]-14-methoxy-9-methyl-3,6-dioxo-1,1a,3,4,5,6,9,10,18,19,20,21,22,22a-tetradecahydro-8H-7,10-methanocyclopropa[18,19][1,10,3,6]dioxadiazacyclononadecino[11,12-b]quinoxaline-8-carboxamide] gave an EC50 [1] of 3.4 nM, an EC50 [2] of 4.6 nM and an EC50 [3] of 89 nM. The EC50 [4] was 3.1 nM, the EC50 [5] was 28 nM and the EC50 [6] was 2.1 nM. The EC50 [7] was 4 nM, the EC50 [8] was 2.6 nM and the EC50 [9] was 1.1 nM.
For CC[C@@H]1C[C@]1(NC(=O)[C@@H]1[C@H](C)[C@@H]2CN1C(=O)[C@H](C(C)(C)C)NC(=O)O[C@@H]1C[C@H]1CCCCCc1nc3ccc(OC)cc3nc1O2)C(=O)NS(=O)(=O)C1CC1 [Example 20, (1aR,5S,8S,9S,9S,10R,22aR)-5-tert-butyl-N-{(1R,2R)-1-[(cyclopropylsulfonyl)carbamoyl]-2-ethylcyclopropyl}-14-methoxy-9-methyl-3,6-dioxo-1,1a,3,4,5,6,9,10,18,19,20,21,22,22a-tetradecahydro-8H-7,10-methanocyclopropa[18,19][1,10,3,6]dioxadiazacyclononadecino[11,12-b]quinoxaline-8-carboxamide], the EC50 [1] was 17 nM, the EC50 [2] was 19 nM and the EC50 [3] was 392 nM. The EC50 [4] was 5.9 nM, the EC50 [5] was 90 nM and the EC50 [6] was 3.4 nM. It also gave an EC50 [7] of 8.1 nM, an EC50 [8] of 5.2 nM and an EC50 [9] of 2.7 nM.
In the case of CC[C@@H]1C[C@]1(NC(=O)[C@@H]1[C@H](C)[C@@H]2CN1C(=O)[C@H](C(C)(C)C)NC(=O)O[C@@H]1C[C@H]1CCCCCc1nc3ccc(OC)cc3nc1O2)C(=O)NS(=O)(=O)C1(C)CC1 [Example 21, (1aR,5S,8S,9S,10R,22aR)-5-tert-butyl-N-[(1R,2R)-2-ethyl-1-{[(1-methylcyclopropyl)sulfonyl]carbamoyl}cyclopropyl]-14-methoxy-9-methyl-3,6-dioxo-1,1a,3,4,5,6,9,10,18,19,20,21,22,22a-tetradecahydro-8H-7,10-methanocyclopropa[18,19][1,10,3,6]dioxadiazacyclononadecino[11,12-b]quinoxaline-8-carboxamide], the EC50 [1] is reported as 15 nM, the EC50 [2] is reported as 12 nM and the EC50 [3] is reported as 263 nM. It also gave an EC50 [4] of 6.2 nM, an EC50 [5] of 70 nM and an EC50 [6] of 4.1 nM. For the same compound, the EC50 [7] was 6.8 nM, the EC50 [8] was 4.7 nM and the EC50 [9] was 3.8 nM.

Source: US10335409B2 (priority 2012, dated 2019)
